US20240368181A1, “QUINOXALINE DERIVATIVES AND USES THEREOF” (Black Diamond Therapeutics, Inc., priority 2021, published 2024)
pIC50: −log10 of the molar value.

Experiments:
Format in all cases: cell-based
[1] = system: SNU-16 (FGFR2-amplification) cells; experiment: cell proliferation assay (CellTiterGlo), SNU-16 cells; conditions: Homo sapiens, 72 hours
Procedure, shortened: (§1)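 IC50 for growth inhibition, normalized to DMSO-treated cells as viable. Cell number was estimated from ATP luminescence (CellTiterGlo) following incubation with compound at varying concentrations.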

[2] = system: DMS-114 (FGFR1 overexpression) cells; experiment: cell proliferation assay (CellTiterGlo), DMS-114 cells; conditions: Homo sapiens
Procedure, shortened: as §1

[3] = system: UM-UC-14 (FGFR3-S249C) cells; experiment: cell proliferation assay (CellTiterGlo), UM-UC-14 cells
Procedure, shortened: as §1

[4] = system: RT-112 (FGFR3-Tacc3 fusion) cells; experiment: cell proliferation assay (CellTiterGlo), RT-112 cells; conditions: Homo sapiens, RT-112, RT112 cells, 72 hours
Procedure, shortened: as §1

pIC50 [1] | SMILES | pIC50 ([2]; DMS-114, 72 h) | pIC50 ([3]; UMUC14, 72 h) | pIC50 [4] | pIC50 ([2]; 72 hours) | pIC50 ([3]; UMUC14, 72 hours)
6.40 to 7.00 | C=C(F)/C=C/n1cc(-c2cnc3ccc(Oc4ccc5nc(C)[nH]c5c4)c(Cl)c3n2)cn1 [Compound 199] | ≤ 6.40 | 6.40 to 7.00 | 6.40 to 7.00 | – | –
7.00 to 7.70 | Cc1nc2ccc(Oc3ccc4ncc(-c5cnn(C6CN(C7COC7)C6)c5)nc4c3Cl)cc2[nH]1 [Compound 237] | 6.40 to 7.00 | 7.00 to 7.70 | > 7.70 | – | –
6.40 to 7.00 | Cc1nc2ccc(Oc3ccc4ncc(-c5cnn(C6CN(C(F)(F)F)C6)c5)nc4c3Cl)cc2[nH]1 [Compound 200] | ≤ 6.40 | 6.40 to 7.00 | 6.40 to 7.00 | – | –
7.00 to 7.70 | Cc1nc2ccc(Oc3ccc4ncc(-c5cnn(C6CN(C(=O)N7CCC7)C6)c5)nc4c3Cl)cc2[nH]1 [Compound 185] | ≤ 6.40 | 7.00 to 7.70 | 7.00 to 7.70 | – | –
> 7.70 | Cc1nc2ccc(Oc3ccc4ncc(-c5cnn(C6CC(C)(O)C6)c5)nc4c3Cl)cc2[nH]1 (stereo not drawn) [Compound 250] | ≤ 6.40 | 7.00 to 7.70 | > 7.70 | – | –
6.40 to 7.00 | Cc1nc2ccc(Oc3ccc4ncc(-c5cnn(CC6CCC(F)(F)C6)c5)nc4c3Cl)cc2[nH]1 (stereo not drawn) [Compound 286] | ≤ 6.40 | 7.00 to 7.70 | 7.00 to 7.70 | – | –
7.00 to 7.70 | Cc1nc2ccc(Oc3ccc4ncc(-c5cnn(CC6CC7CC6CN7C(N)=O)c5)nc4c3Cl)cc2[nH]1 (stereo not drawn) [Compound 328] | ≤ 6.40 | 7.00 to 7.70 | 7.00 to 7.70 | – | –
7.00 to 7.70 | CCS(=O)(=O)N1CC(n2cc(-c3cnc4ccc(Oc5ccc6nc(C)[nH]c6c5)c(Cl)c4n3)cn2)C1 [Compound 372] | ≤ 6.40 | 7.00 to 7.70 | 7.00 to 7.70 | – | –
7.00 to 7.70 | Cc1nc2ccc(Oc3ccc4ncc(-c5cnn(C6CCCN(C)C6)c5)nc4c3Cl)cc2[nH]1 (stereo not drawn) [Compound 378] | ≤ 6.40 | 7.00 to 7.70 | 7.00 to 7.70 | – | –
7.00 to 7.70 | Cc1nc2ccc(Oc3ccc4ncc(-c5cnn(C6CCN(C(=O)N7CC(O)C7)CC6)c5)nc4c3Cl)cc2[nH]1 [Compound 189] | ≤ 6.40 | 7.00 to 7.70 | 7.00 to 7.70 | – | –
7.00 to 7.70 | COC1CCN(CCn2cc(-c3cnc4ccc(Oc5ccc6nc(C)[nH]c6c5)c(Cl)c4n3)cn2)C1 (stereo not drawn) [Compound 260] | 6.40 to 7.00 | 7.00 to 7.70 | 7.00 to 7.70 | – | –
7.00 to 7.70 | Cc1nc2ccc(Oc3ccc4ncc(-c5cnn(CCC6CCN(C7COC7)CC6)c5)nc4c3Cl)cc2[nH]1 [Compound 294] | 6.40 to 7.00 | > 7.70 | 7.00 to 7.70 | – | –
6.40 to 7.00 | Cc1nc2ccc(Oc3ccc4ncc(-c5cnn(C6CN(C(=O)N7CC(O)C7)C6)c5)nc4c3Cl)cc2[nH]1 [Compound 183] | ≤ 6.40 | 6.40 to 7.00 | 6.40 to 7.00 | – | –
7.00 to 7.70 | Cc1nc2ccc(Oc3ccc4ncc(-c5cnn(CCN6C[C@H]7C[C@@H]6CO7)c5)nc4c3Cl)cc2[nH]1 [Compound 234] | ≤ 6.40 | 7.00 to 7.70 | 7.00 to 7.70 | – | –
7.00 to 7.70 | Cc1nc2ccc(Oc3ccc4ncc(-c5cnn(CC(=O)N6CCCC6)c5)nc4c3Cl)cc2[nH]1 [Compound 383] | ≤ 6.40 | 7.00 to 7.70 | 7.00 to 7.70 | – | –
7.00 to 7.70 | Cc1nc2ccc(Oc3ccc4ncc(-c5cnn(C6CN(CC(=O)N7CC(O)C7)C6)c5)nc4c3Cl)cc2[nH]1 [Compound 235] | ≤ 6.40 | 7.00 to 7.70 | 7.00 to 7.70 | – | –

pIC50 [1] | SMILES | pIC50 ([2]; DMS-114, 72 h) | pIC50 ([3]; UMUC14, 72 h) | pIC50 [4] | pIC50 ([2]; 72 hours) | pIC50 ([3]; UMUC14, 72 hours)
6.40 to 7.00 | Cc1nc2ccc(Oc3ccc4ncc(-c5cnn(CC6(F)CC6)c5)nc4c3Cl)cc2[nH]1 [Compound 253] | ≤ 6.40 | 6.40 to 7.00 | 6.40 to 7.00 | – | –
7.00 to 7.70 | Cc1nc2ccc(Oc3ccc4ncc(-c5cnn(C6CN(CC(=O)N7CCC7)C6)c5)nc4c3Cl)cc2[nH]1 [Compound 236] | ≤ 6.40 | 7.00 to 7.70 | 7.00 to 7.70 | – | –
> 7.70 | Cc1nc2ccc(Oc3ccc4ncc(-c5cnn(C6CC7CC6CN7C6COC6)c5)nc4c3Cl)cc2[nH]1 (stereo not drawn) [Compound 331] | ≤ 6.40 | 7.00 to 7.70 | > 7.70 | – | –
7.00 to 7.70 | COC1(Cn2cc(-c3cnc4ccc(Oc5ccc6nc(C)[nH]c6c5)c(Cl)c4n3)cn2)CC1 [Compound 110] | ≤ 6.40 | 7.00 to 7.70 | 7.00 to 7.70 | – | –
7.00 to 7.70 | Cc1nc2ccc(Oc3ccc4ncc(-c5cnn([C@H]6C[C@@H](N7C[C@H]8C[C@@H]7CO8)C6)c5)nc4c3Cl)cc2[nH]1 [Compound 207] | 6.40 to 7.00 | 7.00 to 7.70 | 7.00 to 7.70 | – | –
7.00 to 7.70 | Cc1nc2ccc(Oc3ccc4ncc(-c5cnn(CC6OCC7(COC7)CO6)c5)nc4c3Cl)cc2[nH]1 [Compound 299] | ≤ 6.40 | 7.00 to 7.70 | 7.00 to 7.70 | – | –
6.40 to 7.00 | Cc1nc2ccc(Oc3ccc4ncc(-c5cnn(C6CN(c7ccccn7)C6)c5)nc4c3Cl)cc2[nH]1 [Compound 191] | ≤ 6.40 | 6.40 to 7.00 | 6.40 to 7.00 | – | –
> 7.70 | Cc1nc2ccc(Oc3ccc4ncc(-c5cnn(C6CCN(CC(N)=O)CC6)c5)nc4c3Cl)cc2[nH]1 [Compound 330] | ≤ 6.40 | 7.00 to 7.70 | > 7.70 | – | –
7.00 to 7.70 | Cc1nc2ccc(Oc3ccc4ncc(-c5cnn(C[C@H]6CCN(C)C[C@H]6F)c5)nc4c3Cl)cc2[nH]1 [Compound 368] | 6.40 to 7.00 | 7.00 to 7.70 | 7.00 to 7.70 | – | –
7.00 to 7.70 | Cc1nc2ccc(Oc3ccc4ncc(-c5cnn(CCN6C[C@@H]7C[C@H]6CO7)c5)nc4c3Cl)cc2[nH]1 [Compound 225] | ≤ 6.40 | 7.00 to 7.70 | 7.00 to 7.70 | – | –
7.00 to 7.70 | Cc1nc2ccc(Oc3ccc4ncc(-c5cnn(C6CC(O)C6)c5)nc4c3Cl)cc2[nH]1 (stereo not drawn) [Compound 258] | ≤ 6.40 | 7.00 to 7.70 | 7.00 to 7.70 | – | –
7.00 to 7.70 | Cc1nc2ccc(Oc3ccc4ncc(-c5cnn(C(C)(C)CO)c5)nc4c3Cl)cc2[nH]1 [Compound 359] | ≤ 6.40 | 7.00 to 7.70 | 7.00 to 7.70 | – | –
6.40 to 7.00 | Cc1nc2ccc(Oc3ccc4ncc(-c5cnn(CC6CC(F)(F)C6)c5)nc4c3C3=CCN(C(=O)OC(C)(C)C)C3)cc2[nH]1 [Compound 84] | ≤ 6.40 | ≤ 6.40 | 6.40 to 7.00 | – | –
6.40 to 7.00 | CC(=O)N1CC=C(c2c(Oc3ccc4nc(C)[nH]c4c3)ccc3ncc(-c4cnn(CC5CC(F)(F)C5)c4)nc23)C1 [Compound 78] | ≤ 6.40 | 6.40 to 7.00 | 6.40 to 7.00 | – | –
6.40 to 7.00 | Cc1nc2ccc(Oc3ccc4ncc(-c5cnn(C6CC(N7CCC7)C6)c5)nc4c3Cl)cc2[nH]1 (stereo not drawn) [Compound 244] | ≤ 6.40 | 7.00 to 7.70 | 7.00 to 7.70 | – | –

SMILES | pIC50 [1] | pIC50 ([2]; DMS-114, 72 h) | pIC50 ([3]; UMUC14, 72 h) | pIC50 [4] | pIC50 ([2]; 72 hours) | pIC50 ([3]; UMUC14, 72 hours)
Cc1nc2ccc(Oc3ccc4ncc(-c5cnn(CC6CN6)c5)nc4c3Cl)cc2[nH]1 (stereo not drawn) [Compound 344] | 6.40 to 7.00 | – | – | 6.40 to 7.00 | ≤ 6.40 | 6.40 to 7.00
Cc1nc2ccc(Oc3ccc4ncc(-c5cnn([C@H]6C[C@H]7CC[C@@H](C6)N7C)c5)nc4c3Cl)cc2[nH]1 [Compound 364] | 7.00 to 7.70 | 6.40 to 7.00 | > 7.70 | > 7.70 | – | –
